Results reported in patent publication US20240252503A1, “METHODS OF TREATMENT” (Arena Pharmaceuticals, Inc., priority 2021, published 2024).

What was measured:
human 5-HT2A = human 5-HT2A (Homo sapiens, UniProt P28223); assay: Receptor affinity, 5-HT2A; assay type: binding
From the text: (§1) M1 refers to N-(4-(2-(2-hydroxyethylamino)ethoxy)-3-(1-methyl-1H-pyrazol-5-yl)phenyl)-3-methoxybenzamide. M2 refers to N-(4-(2-aminoethoxy)-3-(1-methyl-1H-pyrazol-5-yl)phenyl)-3-methoxybenzamide.

5-HT2B receptor = 5-HT2B receptor (Homo sapiens, UniProt P41595); assay: Receptor affinity, 5-HT2B; assay type: binding
5-HT2B receptor, sequence (P41595 whole entry): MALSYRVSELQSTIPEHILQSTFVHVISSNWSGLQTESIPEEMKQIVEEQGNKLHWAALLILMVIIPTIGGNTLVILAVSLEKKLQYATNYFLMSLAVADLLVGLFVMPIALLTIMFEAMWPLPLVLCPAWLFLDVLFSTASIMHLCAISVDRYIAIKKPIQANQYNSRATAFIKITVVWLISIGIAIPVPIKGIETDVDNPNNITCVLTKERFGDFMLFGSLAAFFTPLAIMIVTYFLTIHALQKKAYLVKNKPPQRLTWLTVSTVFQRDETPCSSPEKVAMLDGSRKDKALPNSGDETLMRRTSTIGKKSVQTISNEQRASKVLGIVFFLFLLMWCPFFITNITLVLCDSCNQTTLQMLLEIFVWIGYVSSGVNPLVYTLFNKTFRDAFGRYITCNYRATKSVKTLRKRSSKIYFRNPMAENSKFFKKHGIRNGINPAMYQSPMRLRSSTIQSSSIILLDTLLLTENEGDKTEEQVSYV
From the text: as §1

5-HT2C receptor = molecular target: T1, 5-HT2C receptor (Homo sapiens, UniProt P28335); assay: Receptor affinity, 5-HT2C; assay type: binding
T1 sequence (P28335 33-458): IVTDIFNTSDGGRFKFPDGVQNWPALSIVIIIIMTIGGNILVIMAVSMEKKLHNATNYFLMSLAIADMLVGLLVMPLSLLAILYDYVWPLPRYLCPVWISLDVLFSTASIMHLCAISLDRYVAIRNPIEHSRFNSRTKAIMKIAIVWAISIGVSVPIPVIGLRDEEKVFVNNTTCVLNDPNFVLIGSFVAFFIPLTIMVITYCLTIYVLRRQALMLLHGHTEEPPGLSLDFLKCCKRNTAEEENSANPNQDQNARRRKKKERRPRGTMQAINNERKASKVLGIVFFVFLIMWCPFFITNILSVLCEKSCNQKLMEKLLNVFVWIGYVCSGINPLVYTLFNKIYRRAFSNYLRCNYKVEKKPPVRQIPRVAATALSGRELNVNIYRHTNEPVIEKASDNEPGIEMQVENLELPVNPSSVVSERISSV
From the text: as §1

[1] = Phase 1 single-dose escalation study, pharmacokinetics; assay type: in vivo, human; details: for half-life compared with parent compound: after single oral dose of Compound 1, healthy subjects
Description: (§2) A phase 1, randomized, double-blind, placebo-controlled, single-dose escalation study was conducted to assess the tolerability, PK, and PD of Compound 1 doses of 1 to 320 mg administered orally as a single dose to a total of 91 healthy subjects.

[2] = Phase 1 multiple-ascending dose study, pharmacokinetics; assay type: in vivo, human; details: for accumulation ratio as measured by AUCtau: 60 and 80 mg Compound 1 TID, after 7 days
Description: (§3) A phase 1, randomized, double-blind, placebo-controlled, multiple-ascending dose-escalation study was conducted to assess the safety, tolerability, PD, and steady state PK of Compound 1 from 5 to 80 mg administered orally TID for 7 days in a total of 50 healthy subjects.

[3] = test system: cold-induced vasoconstriction in the rabbit foot; assay: Intra-arterial dosing in anesthetized rabbits, peripheral cooling of hind foot; assay type: in vivo, New Zealand White rabbit; details: intra-arterial 0.05 then 0.1 mg/kg; left hind foot in 40° C., then 15° C. water bath
Description: A study was conducted to assess the effects of intra-arterial dosing of Compound 1 and ketanserin on body temperature, peripheral cooling and peripheral blood flow in naïve anesthetized male New Zealand White rabbits.
Formulations of each test compound were prepared by adding saline and vortexing and sonicating until a clear solution was obtained.
Rabbits were sedated with ketamine/xylazine (25/5 mg/kg, subcutaneous) and then intubated and anesthetized with 1-2% isoflurane driven by 100% oxygen (1-2 L/min). Animals were mechanically ventilated and normal body temperature (38-40° C.) was maintained using an external source of heat (e.g., circulating water blanket, heated surgery table). The femoral incision site was infiltrated with 1 mg/kg ID bupivacaine. A catheter for dosing was placed via cutdown in the left femoral artery. […]
At the start of Dose 1 administration, each rabbit's left hind foot was placed in a water bath set to maintain approximately 40° C. […] At 30 minutes post dose start of Dose 2, in Groups 4-6 only, each rabbit's left hind foot was removed to room temperature, monitored and dosed for an additional 15 minutes.
Average percent change of each temperature and blood flow between baseline and each minute of dose administration was determined relative to time-matched vehicle control data.

[4] = test system: 5-HT-mediated amplification of platelet aggregation; assay: Phase 1 single-dose escalation study, platelet aggregation with ADP with and without 5-HT; assay type: in vivo, human; details: single oral doses above 1 mg
Description: as §2
(§4) PD assessment consisted of measuring pre- and post-dose platelet aggregation using an in vitro assay with ADP with and without 5-HT. The degree of thrombin receptor activating peptide (TRAP)-induced platelet aggregation inhibition between groups was similar. However, Compound 1 inhibited 5-HT-mediated amplification of platelet aggregation at doses above 1 mg.

[5] = test system: thrombin receptor activating peptide (TRAP)-induced platelet aggregation; assay: Phase 1 single-dose escalation study, TRAP-induced platelet aggregation; assay type: in vivo, human; details: single oral dose, versus placebo groups
Description: as §2, §4

[6] = test system: ex vivo 5-HT-mediated amplification of platelet aggregation; assay: Phase 1 multiple-ascending dose study, ex vivo platelet aggregation; assay type: in vivo, human
Description: as §3
Administration of Compound 1 inhibited ex vivo 5-HT-mediated amplification of platelet aggregation.

[7] = test system: Raynaud phenomenon attacks; details: intravenous, over 9 weeks, cited from earlier work
[8] = test system: Raynaud phenomenon attacks; details: intravenous; cited from earlier work

human 5-HT2A, sequence (P28223 whole entry): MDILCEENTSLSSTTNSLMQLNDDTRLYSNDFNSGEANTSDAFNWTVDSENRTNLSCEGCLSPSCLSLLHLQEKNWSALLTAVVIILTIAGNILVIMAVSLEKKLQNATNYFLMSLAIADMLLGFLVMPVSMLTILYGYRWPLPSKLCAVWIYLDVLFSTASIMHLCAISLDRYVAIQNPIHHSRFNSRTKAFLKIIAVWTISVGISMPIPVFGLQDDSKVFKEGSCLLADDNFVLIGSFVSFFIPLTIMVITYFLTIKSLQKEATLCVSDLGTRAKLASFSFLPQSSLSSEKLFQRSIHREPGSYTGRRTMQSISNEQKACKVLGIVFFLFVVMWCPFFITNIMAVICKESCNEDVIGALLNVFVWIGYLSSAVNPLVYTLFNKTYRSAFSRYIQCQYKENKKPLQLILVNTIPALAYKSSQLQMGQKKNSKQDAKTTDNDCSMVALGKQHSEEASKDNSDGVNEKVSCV

Compound: COc1cccc(C(=O)Nc2ccc(OCCNCCO)c(-c3ccnn3C)c2)c1 [Compound M1, N-(4-(2-(2-hydroxyethylamino)ethoxy)-3-(1-methyl-1H-pyrazol-5-yl)phenyl)-3-methoxybenzamide]
- affinity for human 5-HT2A (human 5-HT2A): high affinity
- affinity for 5-HT2B receptor (5-HT2B receptor): no appreciable affinity
- affinity for 5-HT2C receptor (5-HT2C receptor): no appreciable affinity
- half-life compared with parent compound [1]: longer half-lives than the parent compound
- accumulation ratio as measured by AUCtau [2]: approximately 2

Compound: O=C(c1ccc(F)cc1)C1CCN(CCn2c(=O)[nH]c3ccccc3c2=O)CC1 [ketanserin, reference compound]
- effect on cold-induced vasoconstriction in the rabbit foot [3]: partially reduced

Compound: COc1cccc(C(=O)Nc2ccc(OCCN3CCOCC3)c(-c3ccnn3C)c2)c1 [Compound 1, 3-methoxy-N-[3-(2-methylpyrazol-3-yl)-4-(2-morpholin-4-ylethoxy)phenyl]benzamide]
- affinity for human 5-HT2A (human 5-HT2A): high affinity
- affinity for 5-HT2B receptor (5-HT2B receptor): no appreciable affinity
- affinity for 5-HT2C receptor (5-HT2C receptor): no appreciable affinity
- effect on cold-induced vasoconstriction in the rabbit foot [3]: partially reduced
- half-life as Compound 1 dose was escalated ([1]; single oral dose 1 to 320 mg): half-life increased
- dose proportionality of plasma exposure measures ([1]; single oral dose 1 to 320 mg, healthy subjects): greater than dose proportional
- absorption ([1]; single oral dose 1 to 320 mg, healthy subjects, all doses): rapidly absorbed
- 5-HT-mediated amplification of platelet aggregation [4]: inhibited
- degree of TRAP-induced platelet aggregation inhibition between groups [5]: similar
- dose proportionality of exposure as measured by AUC ([2]; 5 and 10 mg TID): dose proportional
- absorption ([2]; 5 to 80 mg oral TID for 7 days, all doses): rapidly absorbed
- dose proportionality of exposure as measured by AUC ([2]; 40, 60, and 80 mg TID, Day 1 and Day 7): greater than dose proportional
- Cmax and AUC accumulation ratio ([2]; all doses, Day 7 compared with Day 1, TID for 7 days): less than 2
- extent of inhibition of ex vivo 5-HT-mediated amplification of platelet aggregation ([6]; 60 mg and 80 mg doses, following dosing on Days 1, 4, and 7): essentially maximal
- ex vivo 5-HT-mediated amplification of platelet aggregation ([6]; 5 to 80 mg oral TID for 7 days): inhibited

Compound: COc1cccc(C(=O)Nc2ccc(OCCN)c(-c3ccnn3C)c2)c1 [Compound M2, N-(4-(2-aminoethoxy)-3-(1-methyl-1H-pyrazol-5-yl)phenyl)-3-methoxybenzamide]
- affinity for human 5-HT2A (human 5-HT2A): high affinity
- affinity for 5-HT2B receptor (5-HT2B receptor): no appreciable affinity
- affinity for 5-HT2C receptor (5-HT2C receptor): no appreciable affinity
- half-life compared with parent compound [1]: longer half-lives than the parent compound
- accumulation ratio as measured by AUCtau [2]: approximately 2

Compound: CC#CCC(C)[C@H](O)/C=C/[C@@H]1[C@H]2C/C(=C/CCCC(=O)O)C[C@H]2C[C@H]1O (stereo partly drawn) [iloprost]
- improvement of severity score ([7]; versus 19.7% in comparator): 34.8%
- reduction of weekly Raynaud phenomenon attacks ([7]; versus 22.2% in comparator): 39.1%

Compound: CCCCC[C@H](O)/C=C/[C@@H]1[C@H]2C/C(=C/CCCC(=O)O)O[C@H]2C[C@H]1O [epoprostenol]
- frequency and duration of Raynaud phenomenon attacks [8]: reduced frequency and duration of Raynaud phenomenon attacks
- time after the last infusion at which loss in clinical response was observed [8]: 8-10 weeks
